Measurements: patent US10689344B2, “Biphenylamide derivative Hsp90 inhibitors” (University of Kansas, priority 2013, dated 2020)
Each block holds one molecule with its values, some of them ahead of it.

Legend:
[1] = test system: MCF-7 (estrogen receptor positive breast cancer cells); experiment: Anti-proliferation assay (MTS/PMS, 72 h), MCF-7; assay type: cell-based; settings: Homo sapiens
Method: (§1) Cells were maintained in a 1:1 mixture of Advanced DMEM/F12 (Gibco) supplemented with non-essential amino acids, L-glutamine (2 mM), streptomycin (500 μg/mL), penicillin (100 units/mL), and 10% FBS. Cells were grown to confluence in a humidified atmosphere (37° C., 5% CO2), seeded (2000/well, 100 μL) in 96-well plates, and allowed to attach overnight. Compound at varying concentrations in DMSO (1% DMSO final concentration) was added, and cells were returned to the incubator for 72 h. At 72 h, the number of viable cells was determined using an MTS/PMS cell proliferation kit (Promega) per the manufacturer's instructions. Cells incubated in 1% DMSO were used at 100% proliferation, and values were adjusted accordingly. IC50 values were calculated from separate experiments performed in triplicate using GraphPad Prism.
(§2) Anti-proliferative studies with the compounds described herein were performed against the SKBr3 (estrogen receptor negative, HER2 over-expressing breast cancer cells) and MCF-7 (estrogen receptor positive breast cancer cells) breast cancer cell lines. […] In some embodiments, in contrast to the novobiocin derivatives, which usually manifest better anti-proliferative activities against the SKBr3 cell line, the biphenyl derivatives described herein were more efficacious against the MCF-7 cell line. In general, all substitutions on the phenyl ring were determined to be beneficial, consistent with the existence of a hydrophobic pocket in this region of the Hsp90 C-terminal binding site.

[2] = test system: SKBr3 (estrogen receptor negative, HER2 over-expressing breast cancer cells); experiment: Anti-proliferation assay (MTS/PMS, 72 h), SKBr3; assay type: cell-based; settings: Homo sapiens
Method: as §1, §2

[3] = MCF7, Table 8, para-para biphenyl core with substituted biphenylamide group
[4] = SK-BR-3, Table 8, para-para biphenyl core with substituted biphenylamide group
[5] = MCF7, Table 1, ortho, meta and para biphenyl cores
[6] = SK-BR-3, Table 1, ortho, meta and para biphenyl cores
[7] = MCF7, Table 7, para-para biphenyl core with modified ether groups
[8] = SK-BR-3, Table 7, para-para biphenyl core with modified ether groups
[9] = MCF7, Table 2, para-meta biphenyl core with substituted benzylamide
[10] = SK-BR-3, Table 2, para-meta biphenyl core with substituted benzylamide
[11] = MCF7, Table 3, substituted para-para biphenyl core
[12] = SK-BR-3, Table 3, substituted para-para biphenyl core
[13] = MCF7, Table 6, para-para biphenyl core with substituted benzylamide
[14] = SK-BR-3, Table 6, para-para biphenyl core with substituted benzylamide

- IC50 [1, 3]: 840 ± 10 nM
- IC50 [2, 4]: 510 ± 110 nM
Compound: COc1ccc(C(=O)Nc2ccc(-c3ccc(OC4CCN(C)CC4)cc3)cc2)cc1-c1ccccc1 [Compound 49a, 6-methoxy-N-(4′-((1-methylpiperidin-4-yl)oxy)-[1,1′-biphenyl]-4-yl)-[1,1′-biphenyl]-3-carboxamide]

- IC50 [1, 5]: 8200 nM
- IC50 [2, 6]: 13200 ± 1970 nM
Compound: COc1ccc(C(=O)Nc2cccc(-c3cccc(OC4CCN(C)CC4)c3)c2)cc1 [Compound 61h, 4-methoxy-N-(3′-((1-methylpiperidin-4-yl)oxy)-[1,1′-biphenyl]-3-yl)benzamide]

- IC50 [1, 7]: 950 nM
- IC50 [2, 8]: 850 ± 200 nM
Compound: COc1cccc(-c2cc(C(=O)Nc3ccc(-c4ccc(OCCC5CCCCN5)cc4)cc3)ccc2OC)c1 (centres unmarked) [Compound 56a, 3′,6-dimethoxy-N-(4′-(2-(piperidin-2-yl)ethoxy)-[1,1′-biphenyl]-4-yl)-[1,1′-biphenyl]-3-carboxamide]

- IC50 [1, 9]: 2110 ± 420 nM
- IC50 [2, 10]: 4290 ± 430 nM
Compound: CN1CCC(Oc2ccc(-c3cccc(NC(=O)c4cccc(Cl)c4)c3)cc2)CC1 [Compound 6i, 3-Chloro-N-(4′-((1-methylpiperidin-4-yl)oxy)-[1,1′-biphenyl]-3-yl)benzamide]

- IC50 [1, 11]: 1480 ± 120 nM
- IC50 [2, 12]: 1840 ± 570 nM
Compound: COc1cccc(-c2cc(C(=O)Nc3ccc(-c4ccc(OC5CCN(C)CC5)c(Cl)c4)cc3)ccc2OC)c1 [Compound 29i, N-(3′-chloro-4′-((1-methylpiperidin-4-yl)oxy)-[1,1′-biphenyl]-4-yl)-3′,6-dimethoxy-[1,1′-biphenyl]-3-carboxamide]

- IC50 [1, 5]: 1080 ± 80 nM
- IC50 [1, 13]: 1080 ± 80 nM
- IC50 [2, 6]: 1260 ± 370 nM
- IC50 [2, 14]: 1260 ± 370 nM
Compound: CN1CCC(Oc2ccc(-c3ccc(NC(=O)c4ccc(C(C)(C)C)cc4)cc3)cc2)CC1 [Compound 41g, 4-(tert-butyl)-N-(4′-((1-methylpiperidin-4-yl)oxy)-[1,1′-biphenyl]-4-yl)benzamide]

- IC50 [1, 11]: 1210 ± 30 nM
- IC50 [2, 12]: 1180 ± 110 nM
Compound: COc1cccc(-c2cc(C(=O)Nc3ccc(-c4ccc(OC5CCN(C)CC5)cc4C)cc3)ccc2OC)c1 [Compound 29b, 3′,6-dimethoxy-N-(2′-methyl-4′-((1-methylpiperidin-4-yl)oxy)-[1,1′-biphenyl]-4-yl)-[1,1′-biphenyl]-3-carboxamide]

- IC50 [1, 9]: 4500 ± 460 nM
- IC50 [2, 10]: 8360 ± 1350 nM
Compound: COc1cccc(C(=O)Nc2cccc(-c3ccc(OC4CCN(C)CC4)cc3)c2)c1 [Compound 6g, 3-methoxy-N-(4′-((1-methylpiperidin-4-yl)oxy)-[1,1′-biphenyl]-3-yl)benzamide]

- IC50 [1, 5]: 2230 ± 50 nM
- IC50 [1, 9]: 2230 ± 50 nM
- IC50 [2, 6]: 3630 ± 1030 nM
- IC50 [2, 10]: 3630 ± 1030 nM
Compound: CN1CCC(Oc2ccc(-c3cccc(NC(=O)c4ccc(Cl)cc4)c3)cc2)CC1 [Compound 6h, 4-Chloro-N-(4′-((1-methylpiperidin-4-yl)oxy)-[1,1′-biphenyl]-3-yl)benzamide]

- IC50 ([1]; MCF7, Table 5, modified linkers in para-para biphenyl core): 1220 ± 130 nM
- IC50 ([2]; SK-BR-3, Table 5, modified linkers in para-para biphenyl core): 1640 ± 790 nM
Compound: COc1cccc(-c2cc(NC(=O)c3ccc(-c4ccc(OC5CCN(C)CC5)cc4)cc3)ccc2OC)c1 [Compound 60]

- IC50 [1, 9]: 1100 ± 170 nM
- IC50 [2, 10]: 1640 ± 130 nM
Compound: CN1CCC(Oc2ccc(-c3cccc(NC(=O)c4cccc5ccccc45)c3)cc2)CC1 [Compound 6p, N-(4′-((1-methylpiperidin-4-yl)oxy)-[1,1′-biphenyl]-3-yl)-1-naphthamide]

- IC50 [1, 11]: 1660 ± 590 nM
- IC50 [2, 12]: 3510 ± 560 nM
Compound: COc1cccc(-c2cc(C(=O)Nc3ccc(-c4ccc(OC5CCN(C)CC5)cc4)cc3NC(C)=O)ccc2OC)c1 [Compound 39d, N-(3-acetamido-4′-((1-methylpiperidin-4-yl)oxy)-[1,1′-biphenyl]-4-yl)-3′,6-dimethoxy-[1,1′-biphenyl]-3-carboxamide]

- IC50 [1, 13]: 1030 ± 160 nM
- IC50 [2, 14]: 1110 ± 420 nM
Compound: Cc1cc(C(=O)Nc2ccc(-c3ccc(OC4CCN(C)CC4)cc3)cc2)ccc1Cl [Compound 41j, 4-chloro-3-methyl-N-(4′-((1-methylpiperidin-4-yl)oxy)-[1,1′-biphenyl]-4-yl)benzamide]

- IC50 [1, 9]: 3720 ± 150 nM
- IC50 [2, 10]: 4230 ± 90 nM
Compound: CN1CCC(Oc2ccc(-c3cccc(NC(=O)c4cc(Cl)cc(Cl)c4)c3)cc2)CC1 [Compound 6o, 3,5-Dichloro-N-(4′-((1-methylpiperidin-4-yl)oxy)-[1,1′-biphenyl]-3-yl)benzamide]

- IC50 [1, 11]: 1350 ± 160 nM
- IC50 [2, 12]: 1410 ± 350 nM
Compound: COc1cccc(-c2cc(C(=O)Nc3ccc(-c4ccc(OC5CCN(C)CC5)cc4OC)cc3)ccc2OC)c1 [Compound 29f, 3′,6-dimethoxy-N-(2′-methoxy-4′-((1-methylpiperidin-4-yl)-oxy)-[1,1′-biphenyl]-4-yl)-[1,1′-biphenyl]-3-carboxamide]

- IC50 [1, 9]: 12000 ± 570 nM
- IC50 [2, 10]: 18900 ± 950 nM
Compound: CN1CCC(Oc2ccc(-c3cccc(NC(=O)c4ccccc4)c3)cc2)CC1 [Compound 6b, N-(4′-((1-methylpiperidin-4-yl)oxy)-[1,1′-biphenyl]-3-yl)benzamide]

- IC50 [1, 11]: 4660 ± 490 nM
- IC50 [2, 12]: 2520 ± 260 nM
Compound: COc1cccc(-c2cc(C(=O)Nc3ccc(-c4ccc(OC5CCN(C)CC5)cc4)c(NC(C)=O)c3)ccc2OC)c1 [Compound 39c, N-(2-acetamido-4′-((1-methylpiperidin-4-yl)oxy)-[1,1′-biphenyl]-4-yl)-3′,6-dimethoxy-[1,1′-biphenyl]-3-carboxamide]

- IC50 ([1]; MCF7, Table 4, para-para heteroatom substituted biphenyl core): 1300 ± 150 nM
- IC50 ([2]; SK-BR-3, Table 4, para-para heteroatom substituted biphenyl core): 1910 ± 210 nM
Compound: COc1cccc(-c2cc(C(=O)Nc3ccc(-c4ccc(OC5CCN(C)CC5)cn4)cc3)ccc2OC)c1 [Compound 19b, 3′,6-dimethoxy-N-(4-(5-((1-methylpiperidin-4-yl)oxy)pyridin-2-yl)phenyl)-[1,1′-biphenyl]-3-carboxamide]

- IC50 [1, 11]: 1760 ± 370 nM
- IC50 [2, 12]: 2130 ± 60 nM
Compound: COc1cccc(-c2cc(C(=O)Nc3ccc(-c4ccc(OC5CCN(C)CC5)cc4N)cc3)ccc2OC)c1 [Compound 38b, N-(2′-amino-4′-((1-methylpiperidin-4-yl)oxy)-[1,1′-biphenyl]-4-yl)-3′,6-dimethoxy-[1,1′-biphenyl]-3-carboxamide]

- IC50 [1, 5]: 2710 ± 400 nM
- IC50 [2, 6]: 3470 nM
Compound: CC(=O)Oc1ccc(C(=O)Nc2cccc(-c3ccc(OC4CCN(C)CC4)cc3)c2)cc1CC=C(C)C [Compound 61e, 2-(3-methylbut-2-en-1-yl)-4-((4′-((1-methylpiperidin-4-yl)oxy)-[1,1′-biphenyl]-3-yl)carbamoyl)phenyl acetate]

- IC50 [1, 11]: 1300 ± 120 nM
- IC50 [2, 12]: 1070 nM
Compound: COc1cccc(-c2cc(C(=O)Nc3ccc(-c4ccc(OC5CCN(C)CC5)cc4[N+](=O)[O-])cc3)ccc2OC)c1 [Compound 34b, 3′,6-dimethoxy-N-(4′-((1-methylpiperidin-4-yl)oxy)-2′-nitro-[11′-biphenyl]-4-yl)-[1,1′-biphenyl]-3-carboxamide]

- IC50 [1, 13]: 1370 ± 330 nM
- IC50 [2, 14]: 800 ± 220 nM
Compound: CN1CCC(Oc2ccc(-c3ccc(NC(=O)c4ccc(Cl)cc4Cl)cc3)cc2)CC1 [Compound 41p, 2,4-dichloro-N-(4′-((1-methylpiperidin-4-yl)oxy)-[1,1′-biphenyl]-4-yl)benzamide]

- IC50 [1, 3]: 790 ± 130 nM
- IC50 [2, 4]: 630 ± 40 nM
Compound: COc1ccc(-c2cc(C(=O)Nc3ccc(-c4ccc(OC5CCN(C)CC5)cc4)cc3)ccc2OC)cc1 [Compound 49c, 4′,6-dimethoxy-N-(4′-((1-methylpiperidin-4-yl)oxy)-[1,1′-biphenyl]-4-yl)-[1,1′-biphenyl]-3-carboxamide]

- IC50 [1, 5]: 520 ± 30 nM
- IC50 [1, 13]: 520 ± 30 nM
- IC50 [2, 6]: 570 ± 10 nM
- IC50 [2, 14]: 570 ± 10 nM
Compound: CN1CCC(Oc2ccc(-c3ccc(NC(=O)c4ccc(Cl)cc4)cc3)cc2)CC1 [Compound 41b, 4-chloro-N-(4′-((1-methylpiperidin-4-yl)oxy)-[1,1′-biphenyl]-4-yl)benzamide]

- IC50 [1, 3]: 1020 ± 80 nM
- IC50 [2, 4]: 810 ± 140 nM
Compound: COc1cccc(-c2cccc(C(=O)Nc3ccc(-c4ccc(OC5CCN(C)CC5)cc4)cc3)c2)c1 [Compound 49b, 3′-methoxy-N-(4′-((1-methylpiperidin-4-yl)oxy)-[1,1′-biphenyl]-4-yl)-[1,1′-biphenyl]-3-carboxamide]

- IC50 ([1]; MCF7, Table 10, longer alkyl chain substituted biphenyl core): 1660 ± 120 nM
- IC50 ([2]; SK-BR-3, Table 10, longer alkyl chain substituted biphenyl core): 1030 ± 40 nM
Compound: CCCOc1ccc(C(=O)Nc2ccc(-c3ccc(OC4CCN(C)CC4)cc3)cc2)cc1-c1cccc(OC)c1

- IC50 [1, 3]: 320 ± 90 nM
- IC50 [2, 4]: 330 ± 30 nM
Compound: COc1ccc(C(=O)Nc2ccc(-c3ccc(OC4CCN(C)CC4)cc3)cc2)cc1-c1cccc(Cl)c1 [Compound 49f, 3′-chloro-6-methoxy-N-(4′-((1-methylpiperidin-4-yl)oxy)-[1,1′-biphenyl]-4-yl)-[1,1′-biphenyl]-3-carboxamide]

- IC50 [1, 7]: 870 ± 40 nM
- IC50 [2, 8]: 1020 ± 50 nM
Compound: COc1cccc(-c2cc(C(=O)Nc3ccc(-c4ccc(OCCCN(C)C)cc4)cc3)ccc2OC)c1 [Compound 56c, N-(4′-(3-(dimethylamino)propoxy)-[1,1′-biphenyl]-4-yl)-3′,6-dimethoxy-[1,1′-biphenyl]-3-carboxamide]
